{
  "source": "patent US9309263B2",
  "about": "“Fused multi-cyclic sulfone compounds as inhibitors of beta-secretase and methods of use thereof” (AMGEN INC., priority 2013, dated 2016)",
  "key": {"[1]": {"tested_on": "pigment epithelium of the rat's eye", "conditions": "higher compound dose given for three months; cited from earlier work"}, "Abeta 40": {"tested_on": "Abeta 40", "assay": "In vivo inhibition of beta-secretase: Abeta 40 reduction in CSF and brain of the rat", "conditions": "10 mpk (unless otherwise noted), after 4 hrs", "from_the_text": "In Vivo Inhibition of Beta-Secretase\nSeveral animal models, including mouse, rat, dog, and monkey, may be used to screen for inhibition of beta-secretase activity in vivo following administration of a test compound sample. Animals used in this invention can be wild type, transgenic, or gene knockout animals. For example, the Tg2576 mouse model, prepared and conducted as described in Hsiao et al., 1996, Science 274, 99-102, and other non-transgenic or gene knockout animals are useful to analyze in vivo inhibition of Amyloid beta peptide (Abeta) production in the presence of inhibitory test compounds. Generally, 2 to 18 month old Tg2576 mice, gene knockout mice or non-transgenic animals are administered test compounds formulated in vehicles, such as cyclodextran, phosphate buffers, hydroxypropyl methylcellulose or other suitable vehicles. One to twenty-four hours following the administration of compound, animals are sacrificed, and brains as well as cerebrospinal fluid (CSF) and plasma are removed for analysis of A-beta levels and drug or test compound concentrations (Dovey et al., 2001, Journal of Neurochemistry, 76, 173-181) Beginning at time 0, animals are administered by oral gavage, or other means of delivery such as intravenous injection, an inhibitory test compound of up to 100 mg/kg in a standard, conventional formulation, such as 2% hydroxypropyl methylcellulose, 1% Tween80. A separate group of animals receive 2% hydroxypropyl methylcellulose, 1% Tween80 alone, containing no test compound, and serve as a vehicle-control group. At the end of the test period, animals are sacrificed and brain tissues, plasma or cerebrospinal fluid are collected. Brains are either homogenized in 10 volumes (w/v) of 0.2% diethylamine (DEA) in 50 mM NaCl (Best et al., 2005, Journal of Pharmacology and Experimental Therapeutics, 313, 902-908), or in 10 volumes of 0.5% TritonX-100 in Tris-buffered saline (pH at about 7.6). Homogenates are centrifuged at 355,000 g, 4° C. for 30 minutes. CSF or brain supernatants are then analyzed for the presence of A-beta peptide by specific sandwich ELISA assays based on ECL (Electrochemiluminescence) technology. For example, rat Abeta40 is measured using biotinylated-4G8 (Signet) as a capture antibody and Fab40 (an in-house antibody specific to the C-terminal of Abeta40) as a detection antibody. For example, 4 hours after administration of 30 mg/kg oral dose of the test compound in 2% hydroxypropyl methylcellulose, 1% Tween80 (pH2.2) to 200 g male Sprague Dawley rats, amyloid beta peptide levels are measured for reduction by X % and Y % in cerebrospinal fluid and brain, respectively, when compared to the levels measured in the vehicle-treated or control […].\nActual vehicles used: Oral: 2% HPMC, 1% Tween80, pH 2.2\n• IV: 5% EtOH, 45% Propylene Glycol in 5% Dextrose\nThe compounds of the invention may be shown to reduce the formation and/or deposition of amyloid beta peptide in the cerebrospinal fluid (CSF) as well as in the brain of a mouse or rat at either 3 mpk, 10 mpk or 30 mpk (mpk=mg compound per kg weight of the animal) dosing concentrations after 4 hrs."}, "[2]": {"biological_target": "Beta Secretase enzyme (BACE) (Homo sapiens, UniProt P56817)", "sequence (P56817 46-501)": "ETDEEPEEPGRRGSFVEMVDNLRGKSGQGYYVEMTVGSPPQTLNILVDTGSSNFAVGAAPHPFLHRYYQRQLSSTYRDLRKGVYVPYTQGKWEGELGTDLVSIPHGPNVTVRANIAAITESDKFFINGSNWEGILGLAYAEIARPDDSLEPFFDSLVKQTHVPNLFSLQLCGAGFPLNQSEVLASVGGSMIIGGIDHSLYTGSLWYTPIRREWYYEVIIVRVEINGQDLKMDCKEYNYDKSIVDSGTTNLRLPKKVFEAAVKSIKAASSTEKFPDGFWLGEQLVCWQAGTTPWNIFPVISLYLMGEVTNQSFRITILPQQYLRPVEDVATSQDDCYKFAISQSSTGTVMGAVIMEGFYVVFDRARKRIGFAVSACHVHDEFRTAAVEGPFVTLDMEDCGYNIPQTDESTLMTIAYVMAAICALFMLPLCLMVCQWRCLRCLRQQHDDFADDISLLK", "assay": "In vitro enzymatic BACE FRET assay", "assay_type": "biochemical", "conditions": "read-out: BACE1 FRET assay IC50", "procedure,_shortened": "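Cleavage of a quenched 50 nM FRET peptide substrate, read as fluorescence (excitation 488 nm, […]) after 1 h and Tris quench to neutrality. Buffer: 0.05 M acetate pH 4.2 with 10% DMSO and 100 uM genapol. Inhibitor dilutions were pre-incubated 1 h with 0.2 nM enzyme.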"}, "[3]": {"tested_on": "Aβ 40 in conditioned medium of cells stably expressing Amyloid Precursor Protein (APP)", "assay": "In vitro BACE cell-based assay (Aβ 40 sandwich ELISA)", "conditions": "Homo sapiens, HEK293", "procedure,_shortened": "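Aβ40 in conditioned medium measured by pAb40/biotin-6E10 sandwich ELISA with time-resolved europium fluorescence, after 24 h exposure of stable APP cells to compounds (10-point series starting 100 μM or 10 μM; 0.1% DMSO). IC50 fitted from percent of control against concentration.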"}, "Cathepsin D (Cat D)": {"biological_target": "Cathepsin D (Cat D) (Homo sapiens, UniProt P07339)", "sequence (P07339 65-412, species assumed)": "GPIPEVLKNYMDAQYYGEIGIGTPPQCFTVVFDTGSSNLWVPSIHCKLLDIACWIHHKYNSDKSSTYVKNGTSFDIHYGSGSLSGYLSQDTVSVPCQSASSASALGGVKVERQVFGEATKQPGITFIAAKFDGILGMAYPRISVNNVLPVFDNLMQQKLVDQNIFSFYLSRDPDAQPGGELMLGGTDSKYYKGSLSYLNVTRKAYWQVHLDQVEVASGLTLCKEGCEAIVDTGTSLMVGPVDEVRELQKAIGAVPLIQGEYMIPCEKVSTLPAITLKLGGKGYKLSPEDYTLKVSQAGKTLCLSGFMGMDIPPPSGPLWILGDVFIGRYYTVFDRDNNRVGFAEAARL", "assay": "In vitro enzymatic Cathepsin D (Cat D) FRET assay", "assay_type": "biochemical", "conditions": "read-out: CatD IC50", "procedure,_shortened": "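FRET peptide substrate (20 nM) is cleaved by CHO-derived recombinant enzyme (9 nM) for 1 h after a 1 h inhibitor pre-incubation, at pH 3.5 in citrate buffer with 5 mM CHAPS and 10% DMSO. Tris addition ends the reaction; fluorescence measured at 500 nm excitation, 580 nm emission.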"}, "[4]": {"conditions": "Abeta 40 in CSF of the rat, read-out: % reduction of rat CSF levels at 10 pmk"}, "[5]": {"conditions": "Abeta 40 in brain of the rat, read-out: % reduction of rat brain levels at 10 mpk"}},
  "note": "Read-outs that look alike come from different tables or passages of the source.",
  "data": [
    {"molecule": "C[C@@]1(c2cc(-c3cncnc3)c(F)cc2F)CCSC(N)=N1", "note": "[LY 2811376]", "values": [
      {"measurement": "toxicology finding in the eye", "setting": "[1]", "result": "damaged the pigment epithelium of the rat's eye"}
    ]},
    {"molecule": "C#CCOc1cnc2c(Nc3ccc4c(c3)[C@@]3(C)N=C(N)C(C)(C)S(=O)(=O)[C@@H]3C[C@H](C)O4)nccc2n1", "note": "[Example 140, (4aR,6S,11bR)-3,3,6,11b-tetramethyl-N^~10^~-(2-(2-propyn-1-yloxy)pyrido[3,4-b]pyrazin-5-yl)-4a,5,6,11b-tetrahydro-3H-[1]benzoxepino[4,5-b][1,4]thiazine-2,10-diamine 4,4-dioxide]", "values": [
      {"measurement": "inhibition in vivo at 10 mg/kg", "setting": "Abeta 40; [4]", "result": 71, "unit": "%"},
      {"measurement": "inhibition in vivo at 10 mg/kg", "setting": "Abeta 40; [5]", "result": 72, "unit": "%"},
      {"measurement": "IC50", "setting": "[2]; average IC50, in vitro enzymatic BACE FRET assay", "result": 2, "unit": "nM"},
      {"measurement": "IC50", "setting": "[3]; average IC50, HEK cell assay, Aβ 40 readout", "result": 2, "unit": "nM"},
      {"measurement": "IC50", "setting": "Cathepsin D (Cat D); Cathepsin D FRET assay", "result": 610000, "unit": "nM"}
    ]},
    {"molecule": "C[C@H]1C[C@@H]2[C@](C)(N=C(N)C(C)(C)S2(=O)=O)c2cc(Nc3nccc4cc(C#N)cnc34)ccc2O1", "note": "[Example 56, 8-(((4aR,6S,11bR)-2-amino-3,3,6,11b-tetramethyl-4,4-dioxido-4a,5,6,11b-tetrahydro-3H-[1]benzoxepino[4,5-b][1,4]thiazin-10-yl)amino)-1,7-naphthyridine-3-carbonitrile]", "values": [
      {"measurement": "inhibition in vivo at 10 mg/kg", "setting": "Abeta 40; [4]", "result": 70, "unit": "%"},
      {"measurement": "inhibition in vivo at 10 mg/kg", "setting": "Abeta 40; [5]", "result": 61, "unit": "%"},
      {"measurement": "IC50", "setting": "[2]; average IC50", "result": 2, "unit": "nM"},
      {"measurement": "IC50", "setting": "[3]; HEK cell, average IC50", "result": 1, "unit": "nM"},
      {"measurement": "IC50", "setting": "Cathepsin D (Cat D)", "result": 544000, "unit": "nM"}
    ]}
  ]
}
